As a reminder, the IC50 is the concentration that inhibits the measured activity by half. What is called melting point is the temperature of the solid-liquid transition.

From US7425537B2, “SH2 domain binding inhibitors” (The United States of America as represented by the …, priority 2000, dated 2008) come the findings set out here.

For one data set, the target named is T1, c-Met-Grb2 interaction (Mus musculus, UniProt Q60631).
T1 construct: endogenous in cells; host or cells: murine 32D c-met cells
In words: c-Met-Grb2 co-immunoprecipitation/immunoblot in intact 32D c-met cells after HGF/NK1 stimulation. Format: cell-based, murine. The conditions noted are these: 32D c-met cells pretreated 16 h with 30 nM or 300 nM prior to HGF/NK1 stimulation. The procedure:
To characterize the time period and dose which the Grb2 SH2 domain inhibitor (antagonist) compound of formula 4 enters intact cells, the murine IL-3-dependent cell line 32D c-met was used. The effects of the inhibitor on c-Met-Grb2 interaction was examined by co-immunoprecipitation/immunoblot analysis. Cells were cultured in RPMI 1640+15% FBS and 5% WEHI-3B conditioned medium. Intact 32Dc-met cells were treated with different amount (3, 30, 300 nM) of the compound for 1, 2, 4, and 16 h, then briefly stimulated with HGF/NK1 for 10 minutes before lysis, immunoprecipitated with anti-Grb2 antibodies (Santa Cruz), and immunoblotting with anti-c-Met (Santa Cruz), or anti-Grb2 (Transduction Lab). HGF/NK1 stimulated co-immunoprecipitation of the 145 kDa c-Met beta subunit with Grb2. When cells were pretreated for 16 h with 30 nM or 300 nM compound of formula 4 prior to HGF/NK1 stimulation, the amount of HGF receptor that was co-immunoprecipitated with Grb2 was reduced by approximately 50%.

The subject of data set [1] is erbB-2 driven breast cancer cells. In words: Assay of cell proliferation (direct cell counting). Format: cell-based. The conditions noted are these: FIG. 26, read-out: IC50, cell growth inhibition.

T1 sequence (Q60631 whole entry): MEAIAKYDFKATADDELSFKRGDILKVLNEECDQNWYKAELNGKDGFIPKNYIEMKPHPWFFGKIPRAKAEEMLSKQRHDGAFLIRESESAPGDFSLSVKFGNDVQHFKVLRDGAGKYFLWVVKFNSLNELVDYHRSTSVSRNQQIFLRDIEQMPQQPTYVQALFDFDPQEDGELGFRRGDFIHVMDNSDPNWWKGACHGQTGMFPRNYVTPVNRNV

`NC(=O)C[C@@H]1NC(=O)C2(CCCCC2)NC(=O)C[C@@H](c2ccc(CP(=O)(O)O)cc2)C=CC[C@@H](Cc2cccc3ccccc23)CNC1=O` [Compound 4a, 2-[(9S, 13S, 17R)-8, 11, 20-triaza-13-(naphthylmethyl)-7, 10, 19-trioxo-17-[4-(phosphonomethyl)phenyl]spiro[5.14]icos-15-en-9-yl]acetamide]: the “Reduction of amount of HGF receptor co-immunoprecipitated with Grb2” value on c-Met-Grb2 interaction was “approximately 50%”. Take `NC(=O)C[C@@H]1NC(=O)C2(CCCCC2)NC(=O)[C@@H](CC(=O)O)[C@@H](c2ccc(CP(=O)(O)O)cc2)/C=C/C[C@@H](Cc2cccc3ccccc23)CNC1=O` [Compound 233, 2-[(9S, 10S, 14S, 18S)-7, 16, 19-triaza-18-(carbamoylmethyl)-14-(naphthylmethyl)-8,17,20-trioxo-10-[4-(phosphonomethyl)phenyl]spiro[5.14]icos-11-en-9-yl]acetic acid]: the melting point was 260 °C (dec.). For the same compound, the half-inhibitory concentration (IC50) in data set [1] was below 1000 nM.
